Results from patent US8470806B2, “Perhexiline for treating chronic heart failure” (Heart Metabolics Limited, priority 2004, dated 2013).

Assays:
patients with CHF [1] = test: Cardiopulmonary exercise test (treadmill, Weber protocol, respiratory gas analysis); format: in vivo, human; conditions: for VO2max: mean ± SEM
Source text: An embodiment of the invention will now be described by way of example only wherein a double-blind, randomised, placebo-controlled study was undertaken in order to investigate the effects of perhexiline on chronic heart failure. 56 patients with CHF were recruited and all provided written informed consent. Entry criteria were as follows: left ventricular ejection fraction (LVEF) <40%, optimally medicated heart failure with New York Heart Association (NYHA) Class II-III symptoms. Cardiopulmonary exercise testing with respiratory gas analysis, completion of the Minnesota Living with Heart Failure Questionnaire (MLHFQ) and 2-D echocardiography were performed at baseline on all patients. Incremental exercise testing with assessment of respiratory gas exchange was performed on a treadmill using the Weber protocol. Breath by breath respiratory gases were measured during exercise using a Pulmolab EX670 system mass spectrometer which was calibrated before every study. Raw data were averaged to 30 second intervals and oxygen consumption during peak exercise was obtained (VO2 max; ml/kg/min). Electrocardiograms and blood pressure were monitored throughout. Exercise was terminated at the subject's request due to fatigue or breathlessness. […] The primary end-point for this study was pre-defined as VO2 max with the following secondary endpoints: MLHFQ score, LVEF, E:EA ratio, resting, low dose and high dose mean PSV during stress echocardiography and PCr t½. Therapy randomization of the ischemic and non-ischemic groups occurred separately but with similar protocols in order to allow for pre-hoc analysis of the primary endpoint in each group. […] Data were analyzed with SPSS 11.5 for Windows® and expressed as mean±standard error of mean. ANCOVA using baseline values as covariates was performed to test for significance of differences seen in the perhexiline vs. placebo groups following treatment.

patients with CHF [2] = test: Minnesota Living with Heart Failure Questionnaire (MLHFQ); format: in vivo, human; conditions: for Minnesota living with heart failure questionnaire score: higher score = poorer quality of life
Procedure: A standard 21-question MLHFQ was employed to determine if perhexiline affected patient quality of life. This is a well validated measure of symptomatology in heart failure (17) and includes questions to assess the ability to perform activities of daily living as well as questions gauging the severity of symptoms due to heart failure. Each question was scored out of 5. The sum of the scores were calculated where a higher score indicated a poorer quality of life. All patients completed the questionnaires alone and without assistance. […] The primary end-point for this study was pre-defined as VO2 max with the following secondary endpoints: MLHFQ score, LVEF, E:EA ratio, resting, low dose and high dose mean PSV during stress echocardiography and PCr t½. Therapy randomization of the ischemic and non-ischemic groups occurred separately but with similar protocols in order to allow for pre-hoc analysis of the primary endpoint in each group. […] Data were analyzed with SPSS 11.5 for Windows® and expressed as mean±standard error of mean. ANCOVA using baseline values as covariates was performed to test for significance of differences seen in the perhexiline vs. placebo groups following treatment.

patients with CHF [3] = test: NYHA class before and after treatment; format: in vivo, human
Procedure: 56 patients with CHF were recruited and all provided written informed consent. Entry criteria were as follows: left ventricular ejection fraction (LVEF) <40%, optimally medicated heart failure with New York Heart Association (NYHA) Class II-III symptoms. Cardiopulmonary exercise testing with respiratory gas analysis, completion of the Minnesota Living with Heart Failure Questionnaire (MLHFQ) and 2-D echocardiography were performed at baseline on all patients.

[4] = tested on: patients with CHF (ischemic group); test: Tissue Doppler / dobutamine stress echocardiography, ischemic group; format: in vivo, human; parameters: Mean PSV (15 segments): unit not given beside the values
Procedure: Tissue Doppler assessment of the left ventricle was performed at rest and analysed off-line using Echopac software in order to determine regional myocardial PSV from 15 left ventricular segments described in detail elsewhere (20). These segments were selected to include all areas supplied by the three major coronary arteries and for the greatest reproducibility for acquisition of PSV (21). (See FIG. 4) Following resting echocardiography dobutamine infusion was commenced via a syringe driver and incremented at 3 minute intervals from 5 mcg/kg/min to 10, 20, 30 and 40 mcg/kg/min. Digital loops of 15 views outlined above were stored at 90 seconds of each stage. Up to 1 mg of atropine was given if the hemodynamic response was submaximal. Electrocardiograms and blood pressure were monitored at each stage. End-points for termination of the test were attainment of ≧85% of the target heart rate, evidence of ischemia, or severe side effects from dobutamine. Data from all stages were analysed off-line as with the resting images. PSV data are expressed as velocity at rest, low dose dobutamine infusion ([…]) and peak dose dobutamine infusion (the last infusion stage before infusion terminated, which may include the addition of atropine).

patients with CHF [5] = test: Safety and tolerability in the 8-week study (side effects, corrected QT, liver function, neuropathy)
Procedure: Following baseline studies, patients were randomized in a double-blind fashion to receive either perhexiline (n=28) or placebo (n=28) 100 mg twice daily. Blood was obtained at 1, 4, and 8 weeks after initiation of the drug for measurements of serum perhexiline levels with subsequent dose titration in order to prevent toxicity. Dose adjustments were advised as per a standard protocol by an unblinded physician. Identical dosage adjustments were also made for randomly allocated placebo-treated patients by the unblinded observer in order to ensure blinding of the investigators was maintained. After 8 weeks of treatment, patients were re-evaluated as above.

patients with CHF [6] = test: Resting echocardiography (LVEF, volumes, long-axis PSV, E:EA ratio); format: in vivo, human; conditions: for Long axis function: PSV of lateral mitral valve annulus
Procedure: Echocardiography was performed with patients in the left lateral decubitus position using a Vingmed System V echocardiographic machine and a 2.5 MHz transducer. Images were stored digitally. Resting scans were acquired using standard echocardiographic windows for LVEF, transmitral valve Doppler, and resting tissue Doppler. […] Left ventricular volumes for calculation of LVEF were obtained using biplane echocardiography and the modified Simpson's formula. Volumes were averaged over 3 beats. In addition, on-line tissue Doppler peak systolic velocity (PSV) of the lateral mitral valve annulus was obtained as a reflection of left ventricular long-axis function. In theory, improving metabolic efficiency would also lead to an improvement in diastolic function of the left ventricle as energy is also required for cardiac relaxation. The ratio of peak E wave from transmitral valve Doppler vs. the E wave from tissue Doppler of the lateral mitral valve annulus (E:EA ratio) is a sensitive indicator of left ventricular end diastolic pressure (19). […] The primary end-point for this study was pre-defined as VO2 max with the following secondary endpoints: MLHFQ score, LVEF, E:EA ratio, resting, low dose and high dose mean PSV during stress echocardiography and PCr t½. Therapy randomization of the ischemic and non-ischemic groups occurred separately but with similar protocols in order to allow for pre-hoc analysis of the primary endpoint in each group. […] Data were analyzed with SPSS 11.5 for Windows® and expressed as mean±standard error of mean. ANCOVA using baseline values as covariates was performed to test for significance of differences seen in the perhexiline vs. placebo groups following treatment.

Serum perhexiline levels = format: in vivo; conditions: human
[7] = Post, after 8 weeks of treatment
[8] = all patients of the perhexiline group, 8 weeks

With `C1CCC(C(CC2CCCCN2)C2CCCCC2)CC1` (centres unmarked) [Perhexiline, 2-(2,2-dicyclohexylethyl)piperidine] the “Exercise Time” value (patients with CHF [1]; [7]) was 12.3 ± 1.1 min, the VO2max (patients with CHF [1]; [7]) was 18.8 ± 1.1 mL/min/kg and the “Exercise Time” value (patients with CHF [1]; Pre (baseline)) was 10.5 ± 1.2 min. For the same compound, the VO2max (patients with CHF [1]; Pre (baseline), perhexiline group) was 16.1 ± 0.6 mL/min/kg, the “increase in VO2 max following treatment” value (patients with CHF [1]; [8]) was 2.7 ± 0.8 mL/min/kg and the “increase in VO2 max following treatment (relative)” value (patients with CHF [1]; [8]) was 16.7%. The “increase in VO2 max” value (patients with CHF [1]; ischemic group, 8 weeks) was 2.9 ± 1.2 mL/min/kg, the “increase in VO2 max” value (patients with CHF [1]; non-ischemic group, 8 weeks) was 2.5 ± 0.4 mL/min/kg and the “reduction of MLHFQ scores following treatment” value (patients with CHF [2]; 8 weeks) was 24.4%. For the same compound, the “Minnesota living with heart failure questionnaire score” value (patients with CHF [2]; Post, after 8 weeks) was 34 ± 5, the “Minnesota living with heart failure questionnaire score” value (patients with CHF [2]; Pre (baseline)) was 45 ± 5 and the “NYHA Class” value (patients with CHF [3]; Post, after 8 weeks) was 1.9 ± 0.2^+. The “NYHA Class” value (patients with CHF [3]; Pre (baseline)) was 2.4 ± 0.1, the “Mean PSV (15 segments)” value ([4]; Low Dose dobutamine, Post) was 5.0 ± 0.5 and the “Mean PSV (15 segments)” value ([4]; Low Dose dobutamine, Pre) was 4.7 ± 0.3. For the same compound, the “Mean PSV (15 segments)” value ([4]; Peak Dose dobutamine, Post) was 8.2 ± 0.8, the “Mean PSV (15 segments)” value ([4]; Peak Dose dobutamine, Pre) was 6.6 ± 0.5 and the “Mean PSV (15 segments)” value ([4]; Rest, Post) was 3.8 ± 0.2. For the same compound, the “Mean PSV (15 segments)” value ([4]; Rest, Pre) was 3.3 ± 0.2, the “increase in peak dose PSV” value ([4]; ischemic cohort, peak dose dobutamine, 8 weeks) was 24% and the “increase in resting mean PSV following treatment” value ([4]; ischemic cohort, rest, 8 weeks) was 15%. For the same compound, the “deaths during the study period” value (patients with CHF [5]; 8-week course) was “no deaths in either group”, the “Corrected QT Interval” value (patients with CHF [5]; Post, after 8 weeks) was 413 ± 13 ms and the “Corrected QT Interval” value (patients with CHF [5]; Pre (baseline)) was 413 ± 11 ms. For the same compound, the Side effects (patients with CHF [5]; perhexiline group, 8-week course) was “restricted to transient nausea and dizziness during the first week of treatment”, the “abnormal liver function tests or neuropathy” value (patients with CHF [5]; with close serum level monitoring and titration) was “None of the patients in this study developed abnormal liver function tests or neuropathy” and the “increase of mean LVEF following treatment” value (patients with CHF [6]; 8 weeks) was 9.9 ± 2.0 absolute percentage points. For the same compound, the “relative increase of mean LVEF” value (patients with CHF [6]; 8 weeks) was 42%, the “E:EA Ratio” value (patients with CHF [6]; Post, after 8 weeks) was 6.5 ± 0.9 and the “Left ventricular ejection fraction” value (patients with CHF [6]; Post, after 8 weeks) was 34 ± 2 %. For the same compound, the “Left ventricular end-diastolic volume” value (patients with CHF [6]; Post, after 8 weeks) was 212 ± 9 mL, the “Left ventricular end-systolic volume” value (patients with CHF [6]; Post, after 8 weeks) was 140 ± 8 mL and the Long axis function (patients with CHF [6]; Post, after 8 weeks) was 7.2 ± 0.6^|| cm/s. For the same compound, the “E:EA Ratio” value (patients with CHF [6]; Pre (baseline)) was 8.6 ± 0.6, the “Left ventricular ejection fraction” value (patients with CHF [6]; Pre (baseline)) was 24 ± 1% and the “Left ventricular end-diastolic volume” value (patients with CHF [6]; Pre (baseline)) was 232 ± 11 mL. The “Left ventricular end-systolic volume” value (patients with CHF [6]; Pre (baseline)) was 176 ± 8 mL, the Long axis function (patients with CHF [6]; Pre (baseline)) was 5.8 ± 0.4 cm/s and the concentration at 1 week (Serum perhexiline levels; Week 1, 100 mg twice daily with dose titration) was 570 ± 190 ng/mL. It also gave a concentration at 4 weeks (Serum perhexiline levels; Week 4, 100 mg twice daily with dose titration) of 670 ± 200 ng/mL and a concentration at 8 weeks (Serum perhexiline levels; Week 8, 100 mg twice daily with dose titration) of 430 ± 120 ng/mL.
